Results taken from patent US8927523B2, “Compound sea cucumber preparation and manufacturing method thereof” (Dalian Haiyantang Biology Co., Ltd., priority 2010, dated 2015).

What was measured:
[1] = system: experimental diabetic mice caused by alloxan; experiment: Glucose tolerance of experimental diabetic mice caused by alloxan; type: in vivo; details: 200 mg/kg b.i.d.
Description: Building of mice high glucose model, animal grouping and treating ways are the same as above description.
[formula] wherein, C is the plasma glucose value (mmol/L), t is the time after glucose load (h), i is the glucose value number; C0, C1, C2, C3, C4 are respectively plasma glucose value of before glucose load (0 min) and 30 min, 60 min, 120 min and 240 min after glucose load.

[2] = system: insulin resistance HepG2 cells; experiment: Cell proliferation of insulin resistance HepG2 cells with MTT method; type: cell-based, Human; details: 30 mg/L
Description: Human liver cancer cell line HepG2 provided by Dalian Medical University is vaccinated in a DMEM culture medium which contains 10% volume fraction of fetal calf serum (supplementing penicillin, streptomycin 100 U·L^−1 respectively), and the culture medium is placed in a 5% CO2 cell culture box at 37° C.

[3] = system: experimental diabetic mice caused by alloxan; experiment: Fasting plasma glucose of experimental diabetic mice caused by alloxan; type: in vivo; details: 200 mg/kg b.i.d. irrigating stomachs
Description: Take male, 18˜22 g Kunming variety mice, randomly take 10 mice from them as normal control group. Other mice are injected with alloxan 50 mg/kg after fasting (water is allowed) for 16 h, determine the fasting plasma glucose (FPG) fasting for 5 h after the mice are stable for 15 days, mice with FPG>10 mmol/L are high plasma glucose model mice.
10 mice for normal control group. Take 40 high plasma glucose mice, randomly divide into high plasma glucose model group, compound sea cucumber preparation high dosage (0.5 g/kg) group, compound sea cucumber preparation low dosage (0.25 g/kg) group and positive drug metformin 200 mg/kg group.
Mice of the compound sea cucumber preparation high dosage group and the compound sea cucumber preparation low dosage group are respectively treated with 0.025 g/ml and 0.0125 g/ml suspension of compound sea cucumber preparation and normal saline 0.2 mL/10 gBW by irrigating stomachs, mice of the metformin 200 mg/kg group are treated with […] metformin normal saline solution 0.2 mL/10 gBW by irrigating stomachs, while mice of the normal control group and high plasma glucose model group are treated with equal volume of normal saline by irrigating stomachs. Mice of each group are treated twice each day (b.i.d) continuously for 4 weeks.

[4] = system: insulin resistance HepG2 cells; experiment: Glycerin consumption of insulin resistance HepG2 cells (GPO-POD enzyme method); type: cell-based, Human; details: 30 mg/L
Description: (§1) Human liver cancer cell line HepG2 provided by Dalian Medical University is vaccinated in a DMEM culture medium which contains 10% volume fraction of fetal calf serum (supplementing penicillin, streptomycin […] respectively), and the culture medium is placed in a 5% CO2 cell culture box at 37° C. […] Incubate for 8 h in culture box in the conditions of 37° C. and 5% CO2 to form monolayer anchorage-dependent cells. Wash the cells twice with DMEM culture solution without fetal calf serum, then incubate the cells for 16 h with 5×10^−7 mol·L^−1 insulin culture solution in culture box in the conditions of 37° C. and 5% CO2. The HepG2 cells incubated for 16 h with insulin culture solution are model cells. Count the prepared cell suspension, adjust the cell concentration to 5×10^4·ml^−1, vaccinate on 96-well cell culture plate, 8-well in duplicate for each group, total amount of 200 uL for each well. The experiment is divided into 5 groups: normal control group, insulin resistance model group, compound sea cucumber preparation high and low dosage groups and metformin positive control group. Except the normal control group, each other group is incubated for 16 h after adding insulin with ultimate concentration of 5×10^−7 mol·L^−1 into culture solution so as to form insulin resistance model. […]

[5] = system: insulin resistance HepG2 cells; experiment: Glucose consumption of insulin resistance HepG2 cells (glucose oxidase method); type: cell-based, Human; details: 30 mg/L
Description: as §1

[6] = 28th day, 2 g/kg glucose by abdomen injection
[7] = vs high plasma glucose model group
[8] = 24 h, compared with model group

For `CN(C)C(=N)N=C(N)N` [Metformin, metformin], the “Area under the glucose load curve (ADC, mmol · h/L)” value ([1]; 28th day, 0-240 min, trapezoid area method) was 106.05 ± 12.0 mmol·h/L, the “Plasma Glucose after glucose load 30 min” value [1, 6] was 31.68 ± 2.78 mmol/L and the “Plasma Glucose after glucose load 60 min” value [1, 6] was 31.19 ± 3.42 mmol/L. The “Plasma Glucose after glucose load 120 min” value [1, 6] was 27.43 ± 4.37 mmol/L, the “Plasma Glucose after glucose load 240 min” value [1, 6] was 20.49 ± 2.58 mmol/L and the AUC reduce % ([1]; 28th day, vs high plasma glucose model group) was 18.2%. The “Fasting Plasma Glucose (FPG, mmol/L)” value ([1]; 28th treating day, before glucose load) was 20.72 ± 3.03 mmol/L, the Cell increase % [2] was 0.28% and the Cell survival % [2] was 100.28 ± 1.93Δ %. For the same molecule, the “Fasting Plasma Glucose (FPG) 7 days after treating” value ([3]; n=10) was 18.80 ± 2.77 mmol/L, the “Fasting Plasma Glucose (FPG) 14 days after treating” value ([3]; n=10) was 24.59 ± 4.17 mmol/L and the “Fasting Plasma Glucose (FPG) 21 days after treating” value ([3]; n=10) was 21.18 ± 3.12 mmol/L. For the same molecule, the “Fasting Plasma Glucose (FPG) 28 days after treating” value ([3]; n=10) was 20.72 ± 3.03 mmol/L, the “Weight 28 days after treating” value ([3]; n=10) was 31.76 ± 1.74 g and the “FPG Reduce % 7 days after treating” value [3, 7] was 21.7%. The “FPG Reduce % 14 days after treating” value [3, 7] was 17.1%, the “FPG Reduce % 21 days after treating” value [3, 7] was 29.5% and the “FPG Reduce % 28 days after treating” value [3, 7] was 31.3%. For the same molecule, the “Glycerin consumption increase %” value [4, 8] was 165.97%, the “Glycerin consumption” value ([4]; 24 h after treating) was 0.39 ± 0.02 mmol/L and the “Glucose consumption increase %” value [5, 8] was 115.10%. The “Glucose consumption” value ([5]; 24 h after treating) was 2.83 ± 0.14 mmol/L.
